Where two headings read alike, the source gives them in different places. Positions of bridges follow the written chain, without caps; N, C: chain ends. Residues, ends and D or L forms follow the SMILES beside them.
What was measured:
[1] = system: Klebsiella pneumoniae (KPC, ATCC BAA-1705); details: Table 25, Klebsiella pneumoniae (ATCC BAA-1705)
MRSA (ATCC BAA-1556) = details: Table 25, MRSA (ATCC BAA-1556)
[2] = assay type: in vivo; details: for Average Body Weight / Average Body Weight Growth Rate: Female (M40~M42)
Experimental: In-vivo toxicity study of IFX301. 1. Dose formulations were prepared freshly on dosing day. Doses started from the low to high levels and staggered with 4 h up to 24 h between doses with animals. A dose was escalated or decreased if the test compound appears to be generally tolerated well or not. The cage side observation was done twice daily. The clinical observation was conducted prior to randomization and dosing daily thereafter (at least hourly for the first 4 hours after dosing) and prior to termination for mortality, morbidity check, and clinical signs. Bodyweight was monitored prior to randomization and dosing, daily thereafter, and prior to termination. Gross necropsy was done for all scheduled animals on day 8. Full gross necropsy was conducted, this includes a macroscopic examination of the external surface of the body, all orifices, cranial cavity, the external surface of the brain and cut surfaces of the spinal cord, and the cranial, thoracic, abdominal and pelvic cavities and their viscera, cervical areas, carcass, and genitalia; The animal identification and selected tissues (sex appropriate) identified in Table 38 were sampled and preserved in 10% neutral buffered formalin (NBF). For unscheduled animals (found dead and moribund sacrificed animals): gross necropsy was conducted, and tissues were preserved for possible histology to determine the cause of death. Histopathology was done for adrenal glands, brain, cecum, colon, duodenum, heart, ileum, jejunum, kidneys, liver, rectum, spleen, stomach, thymus lung, pancreas and the testis (ovaries); total 16 tissues/mouse.

[3] = system: Methicillin-resistant Staphylococcus aureus MRSA (ATCC BAA-1556); details: ATCC BAA-1556
[4] = system: Pseudomonas aeruginosa (PSA, ATCC 27883); details: ATCC 27883
[5] = system: Escherichia coli (E. Coli, ATCC 25922); details: Table 25, Escherichia coli (ATCC 25922)
[6] = system: Pseudomonas aeruginosa (PSA, ATCC 27883); test: Synergy checkerboard assay (FIC index); assay type: cell-based; details: Table 25, Pseudomonas aeruginosa (ATCC 27883)
[7] = system: Methicillin-resistant Staphylococcus aureus MRSA (ATCC BAA-1556); details: ATCC BAA-1556; remark: listed apart in the source
[8] = system: Klebsiella pneumoniae (ATCC BAA-1705); details: ATCC BAA-1705
[9] = system: Pseudomonas aeruginosa (ATCC 27883); details: ATCC 27883
[10] = system: Escherichia coli (ATCC 25922); details: ATCC 25922
[11] = system: Pseudomonas aeruginosa (ATCC 27883); assay type: cell-based; details: ATCC 27883
Experimental: (§1) All bacteria pathogens tested clinically reported multi-drug resistant strains. The antibacterial activity was tested against Gram-negative strains namely; Pseudomonas aeruginosa (PSA), Klebsiella pneumoniae (KPC), Escherichia coli (E. coli) and Gram-positive Methicillin-resistant Staphylococcus aureus (MRSA). The minimum inhibitory concentration (MIC) is the lowest concentration of the antibiotic that inhibits microbial growths. MIC is determined by visual inspection or use of spectrophotometer plate reader to determine media turbidity. On the other hand, the minimum bactericidal concentration (MBC) is the lowest concentration that kills […] of bacterial growth. Cytotoxicity of peptides in the hepatic cell line, human skin fibroblast cell line, heart/myocardium cells, and human lung fibroblast cells is shown in FIGS. 36-46). […] (IFX-315)-Au-NP with antibiotics are shown in FIGS. 49-58 when the gold nanoparticles are formed by the peptide followed by addition of the antibiotic. […] (IFX-301) with antibiotics (1:1 ratio) first and then used in the synthesis of Au-NP in antibacterial activities is shown in FIGS. 59-68.
(§2) The MBC is identified by determining the lowest concentration of antibacterial agent that reduces the viability (concentration of peptides necessary to achieve a bactericidal effect) of the initial bacterial inoculum by ≥99.9%.

[12] = system: Methicillin-resistant Staphylococcus aureus MRSA (ATCC BAA-1556); assay type: cell-based
Experimental: as §1, §2

[13] = system: Escherichia coli (ATCC 25922); assay type: cell-based
Experimental: as §1, §2

[14] = peptide in combination with antibiotics
[15] = Average, ICR mice, IP, 25 mg/kg, Male (M49~M51)
[16] = Average, ICR mice, IP, 50 mg/kg, Male (M43~M45)
[17] = Female ICR mice, MTD study, IP route, 10 mg/kg & 5 mL/kg, M40~M42
[18] = Female ICR mice, MTD study, IP route, 25 mg/kg & 5 mL/kg, M52~M54
[19] = Female ICR mice, MTD study, IP route, 50 mg/kg & 5 mL/kg, M46~M48

Compound: N=C(N)NCCC[C@@H]1NC(=O)[C@H](CCCNC(=N)N)NC(=O)[C@H](CCCNC(=N)N)NC(=O)[C@H](Cc2c[nH]c3ccccc23)NC(=O)[C@H](Cc2c[nH]c3ccccc23)NC(=O)[C@H](Cc2c[nH]c3ccccc23)NC(=O)[C@H](Cc2c[nH]c3ccccc23)NC(=O)[C@H](CCCNC(=N)N)NC(=O)[C@H](CCCNC(=N)N)NC1=O [IFX-301, [R5W4]]
- MIC (peptide) ([1]; peptide alone): MIC = 32 ug/ml
- FIC (peptide) [1, 14]: FIC = 8 ug/ml
- MIC (peptide) (MRSA (ATCC BAA-1556); peptide alone): MIC = 4 ug/ml
- FIC (peptide) (MRSA (ATCC BAA-1556); [14]): FIC = 1 ug/ml
- Adrenal glands/Body Coefficient [2, 15]: 0.03%
- Heart/Body Coefficient [2, 15]: 0.57%
- Kidneys/Body Coefficient [2, 15]: 2.15%
- Liver/Body Coefficient [2, 15]: 8.64%
- Lung/Body Coefficient [2, 15]: 1.00%
- Spleen/Body Coefficient [2, 15]: 0.46%
- Testes/Body Coefficient [2, 15]: 0.62%
- Thymus/Body Coefficient [2, 15]: 0.31%
- Heart/Body Coefficient [2, 16]: 0.49%
- Kidneys/Body Coefficient [2, 16]: 2.06%
- Liver/Body Coefficient [2, 16]: 8.27%
- Lung/Body Coefficient [2, 16]: 0.72%
- Spleen/Body Coefficient [2, 16]: 0.68%
- Testes/Body Coefficient [2, 16]: 0.69%
- Thymus/Body Coefficient [2, 16]: 0.25%
- Adrenal glands/Body Coefficient [2, 17]: 0.04%
- Average Body Weight before Necropsy [2, 17]: 25 g
- Brain/Body Coefficient [2, 17]: 1.77%
- Heart/Body Coefficient [2, 17]: 0.51%
- Kidneys/Body Coefficient [2, 17]: 1.46%
- Liver/Body Coefficient [2, 17]: 6.51%
- Lung/Body Coefficient [2, 17]: 0.89%
- Ovaries/Body Coefficient [2, 17]: 0.08%
- Spleen/Body Coefficient [2, 17]: 0.60%
- Thymus/Body Coefficient [2, 17]: 0.48%
- Adrenal glands/Body Coefficient [2, 18]: 0.05%
- Average Body Weight before Necropsy [2, 18]: 23 g
- Heart/Body Coefficient [2, 18]: 0.53%
- Kidneys/Body Coefficient [2, 18]: 1.73%
- Liver/Body Coefficient [2, 18]: 7.85%
- Lung/Body Coefficient [2, 18]: 1.13%
- Ovaries/Body Coefficient [2, 18]: 0.09%
- Spleen/Body Coefficient [2, 18]: 0.64%
- Thymus/Body Coefficient [2, 18]: 0.49%
- Adrenal glands/Body Coefficient [2, 19]: 0.03%
- Average Body Weight before Necropsy [2, 19]: 21 g
- Heart/Body Coefficient [2, 19]: 0.49%
- Kidneys/Body Coefficient [2, 19]: 1.84%
- Liver/Body Coefficient [2, 19]: 7.82%
- Lung/Body Coefficient [2, 19]: 0.75%
- Ovaries/Body Coefficient [2, 19]: 0.08%
- Spleen/Body Coefficient [2, 19]: 0.81%
- Thymus/Body Coefficient [2, 19]: 0.35%
- Average Body Weight ([2]; ICR mice, IP, 10 mg/kg, Day 1): 21 g
- Average Body Weight ([2]; ICR mice, IP, 10 mg/kg, Day 2): 21 g
- Average Body Weight Growth Rate ([2]; ICR mice, IP, 10 mg/kg, Day 2): 3.23%
- Average Body Weight ([2]; ICR mice, IP, 10 mg/kg, Day 3): 22 g
- Average Body Weight Growth Rate ([2]; ICR mice, IP, 10 mg/kg, Day 3): 4.84%
- Average Body Weight ([2]; ICR mice, IP, 10 mg/kg, Day 4): 23 g
- Average Body Weight Growth Rate ([2]; ICR mice, IP, 10 mg/kg, Day 4): 11.29%
- Average Body Weight ([2]; ICR mice, IP, 10 mg/kg, Day 5): 24 g
- Average Body Weight Growth Rate ([2]; ICR mice, IP, 10 mg/kg, Day 5): 16.13%
- Average Body Weight ([2]; ICR mice, IP, 10 mg/kg, Day 6): 24 g
- Average Body Weight Growth Rate ([2]; ICR mice, IP, 10 mg/kg, Day 6): 16.13%
- Average Body Weight ([2]; ICR mice, IP, 10 mg/kg, Day 7): 24 g
- Average Body Weight Growth Rate ([2]; ICR mice, IP, 10 mg/kg, Day 7): 17.74%
- Average Body Weight ([2]; ICR mice, IP, 10 mg/kg, Day 8): 25 g
- Average Body Weight Growth Rate ([2]; ICR mice, IP, 10 mg/kg, Day 8): 20.97%
- clinical observation ([2]; mouse, in vivo): did not show any abnormalities
- Average Body Weight before Necropsy ([2]; mouse, in vivo, ip, 10 mg/kg): 27 g
- Average Body Weight before Necropsy ([2]; mouse, in vivo, ip, 25 mg/kg): 26 g
- Average Body Weight before Necropsy ([2]; mouse, in vivo, ip, 50 mg/kg): 26 g
- MRSA (ATCC BAA-1556) MIC [3]: 4 µg/mL
- Pseudomonas aeruginosa (ATCC 27883) MIC [4]: 32 µg/mL
- MIC (peptide) ([5]; peptide alone): MIC = 16 ug/ml
- FIC (peptide) [5, 14]: FIC = 4 ug/ml
- MIC (peptide) ([6]; peptide alone): MIC = 32 ug/ml
- FIC (peptide) [6, 14]: FIC = 8 ug/ml

Compound: N=C(N)NCCC[C@@H]1NC(=O)[C@H](CCCNC(=N)N)NC(=O)[C@H](CCCNC(=N)N)NC(=O)[C@H](CCCNC(=N)N)NC(=O)[C@@H](NC(=O)[C@H](Cc2c[nH]c3ccccc23)NC(=O)[C@H](Cc2c[nH]c3ccccc23)NC(=O)[C@H](Cc2c[nH]c3ccccc23)NC(=O)[C@@H](N)Cc2c[nH]c3ccccc23)CSSC[C@@H](C(=O)O)NC1=O [IFX-334] (H-WWWWCRRRRC-OH; disulfide 5-10)
- MRSA (ATCC BAA-1556) MIC [7]: 32 µg/mL
- KPC (ATCC BAA-1705) MIC [8]: 256 µg/mL
- PSA (ATCC 27883 MIC) [9]: 256 µg/mL
- E. coli (ATCC 25922) MIC [10]: 32 µg/mL
- PSA (ATCC 27883) MBC [11]: 256 µg/mL
- MRSA (ATCC BAA-1556) MBC [12]: 64 µg/mL
- E. coli (ATCC 25922) MBC [13]: 64 µg/mL

Compound: N=C(N)NCCC[C@H](NC(=O)[C@H](CCCNC(=N)N)NC(=O)[C@H](CCCNC(=N)N)NC(=O)[C@H](CCCNC(=N)N)NC(=O)[C@H](CS)NC(=O)[C@H](Cc1c[nH]c2ccccc12)NC(=O)[C@H](Cc1c[nH]c2ccccc12)NC(=O)[C@H](Cc1c[nH]c2ccccc12)NC(=O)[C@@H](N)Cc1c[nH]c2ccccc12)C(=O)N[C@@H](CS)C(=O)O [IFX-332] (H-WWWWCRRRRC-OH)
- MRSA (ATCC BAA-1556) MIC [7]: 64 µg/mL
- KPC (ATCC BAA-1705) MIC [8]: 512 µg/mL
- PSA (ATCC 27883 MIC) [9]: 256 µg/mL
- E. coli (ATCC 25922) MIC [10]: 128 µg/mL
- MRSA (ATCC BAA-1556) MBC [12]: 128 µg/mL
- E. coli (ATCC 25922) MBC [13]: 256 µg/mL

— patent publication US20220289794A1, “SYNTHETIC ANTIMICROBIAL PEPTIDES” (priority 2019, published 2022)
